Where no end group is shown, it is not given here.
How the values were obtained:
[1] = tested on: Carcinoma cell lines, MCF-7, HCT 11 6, A549 and SNU-71; assay: MTT assay, induction of apoptosis of cancer cells; format: cell-based; conditions: cancer cells treated for 18 hrs
Protocol: Carcinoma cell lines, MCF-7, HCT 11 6, A549 and SNU-71, were cultured in RPMI 1640 medium supplemented with 10% FBS and 100 U/ml penicillin/streptomycin in a humidified 5% CO2 incubator (Gibco-BRL, UK) at 37° C. The cultured cancer cells were treated for 18 hrs with HIV-1 Tat(48-60)-p53 TAD(50-54), an alanine-substituted peptide of SEQ ID NO. 7 and a trytophane-substituted peptide of SEQ ID NO. 11. Then, induction of apoptosis of cancer cells was determined by an MTT assay using the tetrazolium salt, 3-(4,5-dimethylthiazol-2-yl)-2,5-diphenyltetrazolium bromide (MTT). In the MTT assay, after the cancer cells were incubated for 2 hrs in RPMI 1640 medium supplemented with 10% FBS and 0.5 mg/ml MTT, the medium was removed, and 100 μl of DMSO was added.
Four carcinoma cell lines were treated for 18 hrs with HIV-1 Tat(48-60)-p53 TAD(50-54), which was prepared by linking a cell permeable peptide HIV-1 Tat(48-60) consisting of amino acid residues 48-60 of the HIV-1 Tat protein of SEQ ID NO. 22 to the N-terminal end of p53 TAD(50-54), and alanine-substituted and trytophane-substituted peptides thereof. Then, the induction of apoptosis of cancer cells was determined by an MTT assay, and the cancer cells were microscopically observed.

mdm2(3-109) = target: T1, mdm2(3-109) (Homo sapiens, UniProt Q00987); assay: Chemical shift perturbation experiment (15N-1H HSQC NMR titration of 15N-mdm2(3-109) with p53 TAD or fragment peptides); format: binding; conditions: 0.2 mM 15N-mdm2(3-109), 25° C.; for binding affinity to mdm2 as indicated by chemical shift perturbation: 15N-1H HSQC titration
T1 construct: made in house; host or cells: E. coli BL21(DE3), pLM1 vector
Protocol: All NMR data were measured using a Varian Unity INOVA 600 MHz NMR spectrometer at 5° C. and 25° C. ^15N—^1H HSQC (heteronuclear single quantum coherence spectroscopy) spectra were collected with spectral widths of 8000 Hz in the ^1H dimension and 1800 Hz in the ^15N dimension, and with 1024 data points in the t2 domain and 256 data points in the t1 domain.
Also, ^15N—^1H HSQC spectra were collected for the ^15N-labeled mdm2(3-109) protein, dissolved in a buffer solution of 25 mM Tris HCl (pH 7.5), 150 mM NaCl, 2 mM DTT, 0.1 mM PMSF, 0.1 mM EDTA, 0.1 mM benzamidine and 0.02% NaN3, at 0.2 mM of ^15N-mdm2(3-109) and 25° C.
First, HSQC spectra of ^15N-mdm2(3-109) in a free state were collected (FIG. 4). […] Chemical shift assignments of mdm2(3-109) in a free and bound states were performed using 3D NMR experiments, HNCA, HNCOCA, ^15N-edited TOCSY and ^15N-edited NOESY spectrum analysis.
2D ^15N—^1H HSQC spectra were collected for the free (unbound) form of purified ^15N-labeled mdm2(3-109).

DAEQAA
effect on apoptosis induction in cancer cells [1]: unable to induce apoptosis in cancer cells

DIEQWF-NH2 [p53 TAD(49-54), DIEQWF]
effect on apoptosis induction in cancer cells [1]: effectively induces apoptosis

DVEQVV (DVEQVV-NH2) [Val-substituted peptide having I50V/W53V/F54V substitutions relative to the native p53(49-54) peptide]
binding affinity to mdm2 as indicated by chemical shift perturbation (mdm2(3-109)): low binding affinity to mdm2
changes in chemical shift of 15N-mdm2(3-109) after addition of the peptide (mdm2(3-109); 15N-1H HSQC): small change in chemical shift

DWEQWW
effect on apoptosis induction in cancer cells [1]: greatly higher activity in inducing apoptosis than the native DIEQWF

p53 TAD(1-73): recombinant p53 TAD domain corresponding to residues 1-73 of the TAD of human p53
binding affinity to mdm2 as indicated by chemical shift perturbation (mdm2(3-109)): high affinity

— patent US8598127B2, “Peptides for inhibiting MDM2 function” (Korea Research Institute of Bioscience & Biotechnology, priority 2004, dated 2013)
